The results in this text go back to PubChem BioAssay (NCI).

Some test systems named below: COLO 205 colon; EKVX NSCLC; HCT-116 colon; LOX IMVI melanoma; MOLT-4 leukemia; NCI/ADR-RES ovarian; PC-3 prostate; SF-295 CNS; SW-620 colon; UACC-62 melanoma.
Holding throughout (assay): NCI tumour cell line growth inhibition, 48 h

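Method: 48-hour compound exposure of cells in 96-well plates, five concentrations, linear interpolation of endpoints. At the TGI there is no net growth.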

With `COc1c(OC)c(OC)c(C(=O)/C=C/c2ccccc2)c(OC)c1OC`, the TGI was found to be 31.9 µM in the assay on COLO 205 colon; 35.5 µM with EKVX NSCLC; 18.5 µM in the assay on HCT-116 colon; 36.7 µM in the assay with LOX IMVI melanoma; 36.3 µM with MOLT-4 leukemia; 55.1 µM with NCI/ADR-RES ovarian. Also, the TGI in the assay with PC-3 prostate came to 31.1 µM; with SF-295 CNS, 29.9 µM; with SW-620 colon, 31 µM; in the assay with UACC-62 melanoma it was 24.2 µM.
